Assay results reported in Sander's compilation of Henry's law constants (doi:10.1016/j.chemosphere.2015.07.075).

assay: Henry solubility constant Hcp at 298.15 K (mol/(m3 Pa)); details: reference: Copolovici and Niinemets (2015)

| Henry solubility constant Hcp | Structure (SMILES) |
| --- | --- |
| 0.00038 | CC(=O)O[C@H]1C[C@H]2CC[C@]1(C)C2(C)C [bornyl acetate] |
| 0.00029 | CC1=CCCC2(C)C3CCC12CC3(C)C (stereo not drawn) [α-neoclovene] |
| 0.00029 | C=C1CCCC2(C)C3CCC12CC3(C)C (stereo not drawn) [β-neoclovene] |
| 0.00029 | CC1C=CCC2(C)C3CCC12CC3(C)C (stereo not drawn) [γ-neoclovene] |

Continued, molecule first:

| Structure (SMILES) | Henry solubility constant Hcp |
| --- | --- |
| C=C1[C@H]2C[C@H]3[C@@H](C(C)C)CC[C@]1(C)[C@H]3C2 [isosativene] | 0.00039 |
| C=CC(C)(O)CC/C=C(\C)CCC=C(C)C (stereo not drawn) [nerolidol] | 0.00032 |
| C=C(C)C1CCC2=CCCC(C)C2(C)C1 (stereo not drawn) [valencene] | 0.00032 |
| CC1=CCC23C[C@H]1C(C)(C)[C@H]2CC[C@@H]3C [α-cedrene] | 0.00028 |
| C=C/C(C)=C/C/C=C(\C)CCC=C(C)C [α-farnesene] | 0.00034 |
| C/C1=C\CC/C(C)=C/CC(C)(C)/C=C/C1 [α-humulene] | 0.00029 |
| CC1=CCC2C3C1C2(C)CCCC3(C)C (stereo not drawn) [α-longipinene] | 0.00034 |
| C=C1CC/C=C(\C)CC[C@H]2[C@H]1CC2(C)C [β-caryophyllene] | 0.00037 |
| C=C(C)[C@H]1C=C2[C@H](C)CC[C@@H]2[C@H](C)CC1 [γ-gurjunene] | 0.00033 |
